Data on 14 molecules can be found in patent US9290476B2, “Methylene linked quinolinyl modulators of RORγt” (Janssen Pharmaceutica NV, priority 2012, dated 2016).

The structures appear in SMILES notation. Structures can show the parent of a compound that is named as a salt. Where two headings read alike, the source gives them in different places.

In one assay the target is human RORγt LBD (Homo sapiens (Human), UniProt P51449). The assay can be described thus: RORγt reporter assay (GAL4-RORγt LBD luciferase in HEK293T cells). It counts as cell-based. Conditions: for IC50 / RORγt reporter Assay, % inhibition @ 6 μM: HEK293T cells; for IC50: 24 hours compound treatment; for inhibition at 6 µM: HEK-293T, read-out: RORγt reporter Assay, % inhibition @ 6 μM, HEK293T cells, 6 μM. In a few lines:
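HEK293T cells transiently co-transfected with GAL4-DBD–wild-type human RORγt LBD (pBIND) and GAL4-responsive firefly luciferase reporter (pGL4.31); renilla luciferase from pBIND normalises transfection/viability. Cells in phenol-red-free DMEM, 5% lipid-reduced FCS, treated with compound 24 h. Firefly/renilla ratio plotted against compound concentration.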

For assay [1], the target named is human RORγt ligand binding domain (RORγt LBD) (Homo sapiens (Human), UniProt P51449). As to the kind of experiment: RORγt ThermoFluor assay (thermal shift binding affinity). Conditions: estimated from thermal shift. The gist of the method:
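Thermal shift used 0.065 mg/mL RORγt LBD with 60 μM 1,8-ANS in 100 mM Hepes pH 7.0, 10 mM NaCl, 2.5 mM GSH and 0.002% Tween-20, heated at 1 °C/min. Fluorescence was excited at 380–400 nm and emission read at 500 nm.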

Assay [2] relates to IL-17 production by CD4 T cells. As to the kind of experiment: Human Th17 assay (IL-17 production by CD4 T cells under Th17 differentiation). It counts as cell-based. Conditions: human CD4+ T cells, IL-17 after 3 days, read-out: Human Th17 Assay, IC50 μM. The gist of the method: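 Healthy-donor peripheral CD4+ T cells (1.5×10^5/well) preincubated 1 h with titrated compound (0.2% DMSO), then differentiated with anti-CD3/CD28 beads, anti-IL4, anti-IFNγ, IL1β, IL23, IL6, TGFβ and IL2 for 3 days at 37 °C. Supernatant IL-17 quantified by MSD electrochemiluminescence against a standard curve; IC50 fitted.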

human RORγt LBD, sequence (P51449 258-518): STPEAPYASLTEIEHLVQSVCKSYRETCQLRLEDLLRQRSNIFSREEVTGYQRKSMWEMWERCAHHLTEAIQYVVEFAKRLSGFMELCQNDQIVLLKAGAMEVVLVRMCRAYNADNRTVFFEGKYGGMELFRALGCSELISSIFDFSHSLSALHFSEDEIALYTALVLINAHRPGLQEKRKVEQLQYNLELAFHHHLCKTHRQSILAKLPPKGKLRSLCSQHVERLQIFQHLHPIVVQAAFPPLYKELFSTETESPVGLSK
human RORγt ligand binding domain (RORγt LBD), sequence (P51449 other isoform, or with tags, fused parts or gaps): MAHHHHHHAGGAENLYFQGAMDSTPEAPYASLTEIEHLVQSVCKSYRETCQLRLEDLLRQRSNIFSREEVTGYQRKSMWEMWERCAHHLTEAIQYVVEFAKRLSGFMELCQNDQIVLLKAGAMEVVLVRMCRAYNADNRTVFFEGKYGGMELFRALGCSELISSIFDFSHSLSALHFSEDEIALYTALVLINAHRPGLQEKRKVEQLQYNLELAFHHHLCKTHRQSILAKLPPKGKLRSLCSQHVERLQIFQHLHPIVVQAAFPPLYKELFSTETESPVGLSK

As for `COc1nc2c(C)cc(C(O)(c3ccc(C(F)(F)F)nc3)c3cncn3C)cc2c(Cl)c1Cc1ccc(-n2cccn2)cc1` (single isomer, unassigned) [Example 29B, (3-(4-(1H-pyrazol-1-yl)benzyl)-4-chloro-2-methoxy-8-methylquinolin-6-yl)(1-methyl-1H-imidazol-5-yl)(6-(trifluoromethyl)pyridin-3-yl)methanol], the IC50 – broadly, the concentration at which inhibition is half-maximal – against human RORγt LBD worked out at 0.13 µM; in assay [2], 0.19 µM. In addition, the inhibition – broadly, the relative decrease from the control value, in per cent – at 6 µM at human RORγt LBD turned out to be 102%. For the same molecule, in assay [1], the dissociation constant (Kd) (commonly the concentration at which binding is half-saturated) was 0.093 µM.
As to `COc1ccc(C(O)(c2ccc3nc(OC)c(Cc4ccc(-n5cccn5)cc4)c(Cl)c3c2)c2cncs2)cn1` (single isomer, unassigned) [Example 20C, (3-(4-(1H-pyrazol-1-yl)benzyl)-4-chloro-2-methoxyquinolin-6-yl)(6-methoxypyridin-3-yl)(thiazol-5-yl)methanol], at human RORγt LBD, the “RORγt reporter Assay, % inhibition @ 6 μM” value worked out at 102% and the IC50 was determined as 0.06 µM. Besides, in assay [1], the Kd is 0.0053 µM. For the same molecule, in assay [2], the half-inhibitory concentration (IC50) amounted to 0.069 µM.
Take `COc1ccc(C(O)(c2ccc3nc(OC)c(Cc4ccc(-n5cccn5)cc4)c(Cl)c3c2)c2cncn2C)cn1` (centres unmarked) [Example 22, (3-(4-(1H-Pyrazol-1-yl)benzyl)-4-chloro-2-methoxyquinolin-6-yl)(6-methoxypyridin-3-yl)(1-methyl-1H-imidazol-5-yl)methanol.TFA]: the 50% inhibitory concentration (IC50) worked out at 0.091 µM on human RORγt LBD and 0.016 µM in assay [2] (Homo sapiens, CD4+ T, 72 h). In addition, on human RORγt LBD, the inhibition at 6 µM came out at 96%. Further, the Kd in assay [1] is 0.0028 µM.
With `COc1nc2ccc(C(O)(c3ccc(Cl)cc3)c3cncn3C)cc2c(OC)c1Cc1ccc(-n2cccn2)cc1` (centres unmarked) [Example 34, (3-(4-(1H-Pyrazol-1-yl)benzyl)-2,4-dimethoxyquinolin-6-yl)(4-chlorophenyl)(1-methyl-1H-imidazol-5-yl)methanol.TFA], the half-inhibitory concentration (IC50) worked out at 0.46 µM at human RORγt LBD and 1.8 µM in assay [2] (Homo sapiens, CD4+ T, 72 h). In addition, the inhibition at 6 µM on human RORγt LBD was determined as 101%. Also, the Kd in assay [1] was 0.25 µM.
On to `COc1nc2c(C)cc(C(O)(c3ccc(Cl)cc3)c3cncn3C)cc2c(Cl)c1Cc1ccc(-n2cccn2)cc1` (single isomer, unassigned) [Example 28C, (3-(4-(1H-pyrazol-1-yl)benzyl)-4-chloro-2-methoxy-8-methylquinolin-6-yl)(4-chlorophenyl)(1-methyl-1H-imidazol-5-yl)methanol], for which the “RORγt reporter Assay, % inhibition @ 6 μM” value on human RORγt LBD is reported as 97%. Also, the IC50 against human RORγt LBD was determined as 0.087 µM; in assay [2] (Homo sapiens, CD4+ T, 72 h), 0.066 µM. Besides, in assay [1], the equilibrium dissociation constant (Kd) was 0.0058 µM.
In the case of `COc1nc2ccc(C(O)(c3cnnn3C)C3CN(C(C)=O)C3)cc2c(Cl)c1Cc1ccc(C(F)(F)F)cc1` (single isomer, unassigned) [Example 97C, 1-(3-((4-Chloro-2-methoxy-3-(4-(trifluoromethyl)benzyl)quinolin-6-yl)(hydroxy)(1-methyl-1H-1,2,3-triazol-5-yl)methyl)azetidin-1-yl)ethanone], the “RORγt reporter Assay, % inhibition @ 6 μM” value on human RORγt LBD was 99%. For the same molecule, the IC50 was around 0.004 µM at human RORγt LBD and 0.015 µM in assay [2]. Besides, the Kd in assay [1] was 0.00064 µM.
As to `CCc1nc2ccc(C(O)(c3cnnn3C)C3CN(C(C)=O)C3)cc2c(Cl)c1Cc1ccc(C(F)(F)F)cc1` (single isomer, unassigned) [Example 90B, 1-(3-((4-Chloro-2-ethyl-3-(4-(trifluoromethyl)benzyl)quinolin-6-yl)(hydroxy)(1-methyl-1H-1,2,3-triazol-5-yl)methyl)azetidin-1-yl)ethanone], the IC50 is around 0.004 µM against human RORγt LBD and 0.012 µM in assay [2] (Homo sapiens, CD4+ T, 72 h). In addition, the inhibition at 6 µM on human RORγt LBD turned out to be 98%. Besides, the Kd in assay [1] is 0.00056 µM.
Take `CON(C)c1nc2ccc(C(O)(c3ccc(C(F)(F)F)nc3)c3cncn3C)cc2c(Cl)c1Cc1ccc(-n2cccn2)cc1` (single isomer, unassigned) [Example 67B, (3-(4-(1H-pyrazol-1-yl)benzyl)-4-chloro-2-(methoxy(methyl)amino)quinolin-6-yl)(1-methyl-1H-imidazol-5-yl)(6-(trifluoromethyl)pyridin-3-yl)methanol]: the IC50 at human RORγt LBD was found to be 0.035 µM; in assay [2], 0.01 µM. Also, at human RORγt LBD, the inhibition at 6 µM turned out to be 101%. Further, in assay [1], the dissociation constant (Kd) is 0.0063 µM.
Take `COc1nc2ccc(C(O)(c3ccc(C(F)(F)F)nc3)c3cncn3C)cc2c(C#N)c1Cc1ccc(-n2cccn2)cc1` (single isomer, unassigned) [Example 73C, 3-(4-(1H-Pyrazol-1-yl)benzyl)-6-(hydroxy(1-methyl-1H-imidazol-5-yl)(6-(trifluoromethyl)pyridin-3-yl)methyl)-2-methoxyquinoline-4-carbonitrile]: on human RORγt LBD, the “RORγt reporter Assay, % inhibition @ 6 μM” value is on record as 99% and the 50% inhibitory concentration (IC50) is 0.31 µM. Besides, the Kd in assay [1] was 0.034 µM. The 50% inhibitory concentration (IC50) in assay [2] was determined as 0.13 µM.
Turning to `Cn1cncc1C(O)(c1ccc(C(F)(F)F)nc1)c1ccc2nc(N3CCC3)c(Cc3ccc(C(F)(F)F)cc3)c(Cl)c2c1` (single isomer, unassigned) [Example 92B, (2-(Azetidin-1-yl)-4-chloro-3-(4-(trifluoromethyl)benzyl)quinolin-6-yl)(1-methyl-1H-imidazol-5-yl)(6-(trifluoromethyl)pyridin-3-yl)methanol], the IC50 on human RORγt LBD was 0.1 µM; in assay [2], 0.034 µM. Moreover, the inhibition at 6 µM at human RORγt LBD was determined as 96%. Besides, the Kd in assay [1] is 0.012 µM.
Turning to `CCN(CC)c1nc2ccc(C(O)(c3ccc(C(F)(F)F)nc3)c3cncn3C)cc2c(C#N)c1Cc1ccc(-n2cccn2)cc1` (single isomer, unassigned) [Example 74B, 3-(4-(1H-Pyrazol-1-yl)benzyl)-2-(diethylamino)-6-(hydroxy(1-methyl-1H-imidazol-5-yl)(6-(trifluoromethyl)pyridin-3-yl)methyl)quinoline-4-carbonitrile], on human RORγt LBD, it took 0.17 µM to reach half-maximal inhibition (IC50) and the inhibition at 6 µM turned out to be 95%. Further, in assay [1], the Kd was 1.3 µM. Moreover, the IC50 in assay [2] (Homo sapiens, CD4+ T, 72 h) is 0.091 µM.
As for `COc1nc2ccc(C(O)(c3ccc(Cl)cc3)c3cncn3C)cc2c(Cl)c1Cc1cc2ccccc2s1` (single isomer, unassigned) [Example 36C, (3-(benzo[b]thiophen-2-ylmethyl)-4-chloro-2-methoxyquinolin-6-yl)(4-chlorophenyl)(1-methyl-1H-imidazol-5-yl)methanol], at human RORγt LBD, the “RORγt reporter Assay, % inhibition @ 6 μM” value is 101% and half-maximal inhibition (IC50) required 0.1 µM. The Kd in assay [1] was 0.011 µM. Further, in assay [2] (Homo sapiens, CD4+ T, 72 h), the half-inhibitory concentration (IC50) amounted to 0.066 µM.
Turning to `CCOc1nc2ccc(C(O)(c3cncs3)c3cncn3C)cc2c(Cl)c1Cc1ccc(-n2cccn2)cc1` (centres unmarked) [Example 16, (3-(4-(1H-Pyrazol-1-yl)benzyl)-4-chloro-2-ethoxyquinolin-6-yl)(1-methyl-1H-imidazol-5-yl)(thiazol-5-yl)methanol.TFA], on human RORγt LBD, the concentration for half-maximal inhibition (IC50) was determined as 0.038 µM and the inhibition at 6 µM is 104%. Moreover, the Kd in assay [1] is 0.0066 µM. Further, the IC50 in assay [2] (Homo sapiens, CD4+ T, 72 h) came out at 0.054 µM.
In the same order, the values of `Cc1cc(C(O)(c2ccc(Cl)cc2)c2cncn2C)cc2c(Cl)c(Cc3ccc(-n4cccn4)cc3)c(Cl)nc12` (centres unmarked) [Example 85, (3-(4-(1H-Pyrazol-1-yl)benzyl)-2,4-dichloro-8-methylquinolin-6-yl)(4-chlorophenyl)(1-methyl-1H-imidazol-5-yl)methanol] are 0.29 µM, 97%, 0.085 µM and 0.3 µM.
